The source of these data is US4532343A, “Aromatic retinoic acid analogues” (SRI International, priority 1982, dated 1985).

For test [1], the system named is Hamster Tracheal Organ Culture (keratinization). Briefly: tracheal organ culture assay (reversal of keratinization in hamster tracheal organ culture). The class given is cell-based. To be noted: for Reversal of Keratinization in Hamster Tracheal Organ Culture, Active/Total Cultures: active = neither keratin nor keratohyaline granules seen, or keratohyaline granules alone absent; for Reversal of Keratinization in Hamster Tracheal Organ Culture, Active/Total Cultures (%): percent of active cultures. The method, then:
(§1) The ODC assay measures a compound's ability to prevent the induction of ODC. The tracheal organ culture assay measures a compound's ability to reverse keratinization.
The tracheal organ culture assay is carried out as follows. Tracheas are taken from hamsters that are in very early stages of vitamin A deficiency and placed in organ culture. At the time of culture, the animals are still gaining weight; the tracheal epithelium is generally low columnar or cuboidal, with only occasional patches of squamous metaplasia. Each trachea is opened from the larynx to the carina along the membranous dorsal wall and cultured in a serum-free medium (CMRL-1066; with crystalline bovine insulin, 0.1 μg/ml; hydrocortisone hemisuccinate, 0.1 μg/ml; glutamine, 2 mM; penicillin, 100 units/ml; and streptomycin,100 μg/ml, added). Cultures are gassed with 50% oxygen, 45% nitrogen, and 5% CO2. The culture dishes are rocked at 35.5-36.0 degrees to allow the tracheas contact with both gas and medium. All tracheas are grown in medium containing no retinoid for the first 3 days. At the end of 3 days, some tracheas are harvested; almost all of these tracheas have significant squamous metaplasia, and approximately 60% have keratinized lesions. The remaining tracheas are then divided into different groups which are treated with either: (1) retinoid dissolved in dimethylsulfoxide (final concentration of DMSO in culture medium is never greater than 0.1%) or (2) an equivalent amount of DMSO alone. Culture medium is changed three times a week, and all of the remaining tracheas are harvested at the end of 10 days in culture. Tracheas are fixed in 10% buffered formalin and embedded in paraffin. Cross sections of five micrometers are made through the mid-portion, stained with hematoxylin and eosin, and then scored with a microscope for the presence of keratin and keratohyaline granules, both of which are found in approximately 90% of control cultures that received no retinoid for the entire 10 day culture period.

For test [2], the system named is Ornithine Decarboxylase. Description: ornithine decarboxylase (ODC) assay: inhibition of induction of ODC by 12-O-tetradecanoylphorbol-13-acetate in mouse skin. To be noted: topical, 1 hour before TPA (17 nmol). The class given is in vivo, mouse (female Charles River CD-1). The method, then:
as §1
The ODC assay is carried out as follows. Female Charles River CD-1 mice from Charles River Breeding Laboratories, Wilmington, Massachusetts, are used (age 7 to 9 weeks). The dorsal hair of the mice is shaved 1 to 2 days before testing, and only mice showing no hair regrowth are used. A single dose of 12-O-tetradecanoylphorbol-13-acetate (TPA) (10.5 μg, 17 nmol) in 0.2 mL of acetone is applied topically to the back of each mouse. The test compound, at one of three dose levels (1.7, 17 and 170 nmol), dissolved in 0.2 mL of acetone is applied 1 hour before the TPA treatment to the test groups; the control group is treated with acetone alone. The mice are killed by cervical dislocation five hours after TPA treatment. Determinations are done in triplicate.
The epidermis is obtained from the sacrificed animals. To obtain sufficient material, the dorsal skins from 2 to 3 mice in each treatment group are pooled. The depilatory agent Nudit® (Helena Rubinstein, New York) is applied to the shaved area of the skin; after 5 minutes, it is washed off thoroughly with cold tap water. Then the skin is excised and plunged immediately into ice-cold water; it is then placed in a 55° C. water bath for 30 seconds and reimmersed in ice-cold water for at least another 30 seconds. The skin is placed epidermis side up on a cold plate, and the epidermis is scraped off with a razor blade. The pooled epidermal sheets are homogenized (Polytron PT-10 homogenizer) at 0° to 4° C. for 15-20 seconds in 50 mM sodium phosphate and 0.1 mM ethylenediaminetetraacetic acid (EDTA), at a volume of 1 mL/skin.
The supernatant fraction remaining after centrifugation of the homogenate at 10,000× g for 30 seconds at 0° C. is used for the enzyme assay. Enzyme activity is determined using the microassay for ODC as described by Verma and Boutwell to measure the release of ^14 CO2 from DL-[1-^14 C]-ornithine (58 mCi/mmol) after incubation with the 10,000× g supernatant. The incubations are carried out by decanting, with a Pasteur pipette, 100 μL of the supernatant containing 100 to 120 μg of protein into two or three 15-mL Corex tubes in a shaking water bath at 37° C. The assay mixture in the tubes consists of 50 μL of 100 mM sodium phosphate buffer (pH 7.2), 10 μL of 4 mM pyridoxal phosphate, 40 μL of 25 mM dithiothreitol, and 1 μL of 0.1 M EDTA. The center wells in the tubes are filled with 200 μL of a 2:1 solution (v/v) of ethanolamine:2-methoxyethanol. The reaction is started by adding 50 μL of substrate (0.5 μCi of DL-[1-^14 C]-ornithine in 2 mM cold ornithine) at 1-minute intervals by injection to each of the stoppered tubes. Incubations are routinely carried out at 37° C. for 30 to 60 minutes. The reaction is stopped by addition of 0.5 ml of 2 M citric acid, and incubation is continued for an additional hour without heating to ensure complete absorption of ^14 CO2.
Radioactivity is measured using a toluene-based scintillant (4 g of PPO and 50 mg of POPOP/L of toluene) in a Beckman LS-250 liquid scintillation counter. Enzyme activity is determined in triplicate and expressed as nanomoles of CO2 released in 30 minutes per milligram of protein. Enzyme activity is linear for the protein concentration used. The protein concentrations of the epidermal extracts are determined by the Lowry procedure, using bovine serum albumin as the standard.

The structures appear in SMILES notation.

As for `CCOC(=O)c1ccc(/C=C(C)/C=C/C2=C(C)CCCC2(C)C)c(OC)c1` [Example 3, (E)-1-(4-carbethoxy-2-methoxyphenyl)-2-methyl-4-(2,6,6-trimethyl-1-cyclohexen-1-yl)-1,3-butadiene], the “Reversal of Keratinization in Hamster Tracheal Organ Culture, Active/Total Cultures” value is reported as 7/7 in test [1] (Conc 10^-8 M), 5/7 in test [1] (Conc 10^-9 M) and 4/7 in test [1] (Conc 10^-10 M). The “Reversal of Keratinization in Hamster Tracheal Organ Culture, Active/Total Cultures (%)” value (“Reversal … Active/Total Cultures (%)” below) in test [1] (Conc 10^-8 M) was 100%; in test [1] (Conc 10^-9 M), 71%; in test [1] (Conc 10^-10 M), 57%. Also, the “Inhibition of Induction of Ornithine Decarboxylase by 12-O-Tetradecanoylphorbol-13-acetate in Mouse Skin, % Inhibition of Control” value (from here on “Inhibition … % Inhibition of Control”) in test [2] (Dose 1.7 nmol) is reported as 21%; in test [2] (Dose 17 nmol), 39%.

On to `CC1=C(/C=C/C(C)=C/c2ccc(C(=O)O)cc2F)C(C)(C)CCC1` [Example 6, (E)-1-(4-Carboxy-2-fluorophenyl)-2-methyl-4-(2,6,6-trimethyl-1-cyclohexen-1-yl)-1,3-butadiene], for which the figures for the “Reversal of Keratinization in Hamster Tracheal Organ Culture, Active/Total Cultures” value in test [1] (Conc 10^-8 M), in test [1] (Conc 10^-9 M) and in test [1] (Conc 10^-10 M) were 6/6, 12/12 and 3/11, respectively. Further, the “Reversal … Active/Total Cultures (%)” value in test [1] (Conc 10^-8 M) turned out to be 100%; in test [1] (Conc 10^-9 M), 100%; in test [1] (Conc 10^-10 M) it was 27%. Also, the “Inhibition … % Inhibition of Control” value is 37% in test [2] (Dose 1.7 nmol) and 78% in test [2] (Dose 17 nmol).

For the compound `CCOC(=O)c1ccc(/C(F)=C(C)/C=C/C2=C(C)CCCC2(C)C)cc1` [Example 1, (1Z,3E)-1-(4-carbethoxyphenyl)-1-fluoro-2-methyl-4-(2,6,6-trimethyl-1-cyclohexen-1-yl)-1,3-butadiene], the “Reversal of Keratinization in Hamster Tracheal Organ Culture, Active/Total Cultures” value in test [1] (Conc 10^-8 M) was 11/12; in test [1] (Conc 10^-9 M) it was 10/12; in test [1] (Conc 10^-10 M), 6/13. The entries for the “Reversal … Active/Total Cultures (%)” value in test [1] (Conc 10^-8 M), in test [1] (Conc 10^-9 M) and in test [1] (Conc 10^-10 M) were 92%, 83% and 46%, respectively. Further, the “Inhibition … % Inhibition of Control” value came to 56% in test [2] (Dose 1.7 nmol) and 82% in test [2] (Dose 17 nmol).

Regarding `CCOC(=O)c1ccc(/C=C(C)/C=C/C2=C(C)CCCC2(C)C)c(F)c1` [Example 5, (E)-1-(4-Carbethoxy-2-fluorophenyl)-2-methyl-4-(2,6,6-trimethyl-1-cyclohexen-1-yl)-1,3-butadiene], the “Reversal of Keratinization in Hamster Tracheal Organ Culture, Active/Total Cultures” value in test [1] (Conc 10^-8 M) was 6/6; in test [1] (Conc 10^-9 M), 6/7; in test [1] (Conc 10^-10 M) it was 4/7. In addition, the “Reversal … Active/Total Cultures (%)” value in test [1] (Conc 10^-8 M) was found to be 100%; in test [1] (Conc 10^-9 M), 86%; in test [1] (Conc 10^-10 M) it was 56%. The “Inhibition … % Inhibition of Control” value in test [2] (Dose 1.7 nmol) turned out to be 8%; in test [2] (Dose 17 nmol), 46%.

In the case of `CC1=C(/C=C/C(C)=C(\F)c2ccc(C(=O)O)cc2)C(C)(C)CCC1` [Example 2, (1Z,3E)-1-(4-Carboxyphenyl)-1-fluoro-2-methyl-4-(2,6,6-trimethyl-1-cyclohexen-1-yl)-1,3-butadiene], the “Reversal of Keratinization in Hamster Tracheal Organ Culture, Active/Total Cultures” value in test [1] (Conc 10^-8 M) is listed as 13/13; in test [1] (Conc 10^-9 M), 12/13; in test [1] (Conc 10^-10 M), 5/13. In addition, the entries for the “Reversal … Active/Total Cultures (%)” value in test [1] (Conc 10^-8 M), in test [1] (Conc 10^-9 M) and in test [1] (Conc 10^-10 M) were 100%, 92% and 38%, respectively. The results for the “Inhibition … % Inhibition of Control” value in test [2] (Dose 1.7 nmol) and in test [2] (Dose 17 nmol) were 70% and 80%, respectively.
